Source: publication PMC3089805 (Chemmedchem, 2010)
≈ marks a conversion by molar mass, not a printed value.

Key:
H. pylori strain 26695 = test: MIC determination, liquid microdilution, H. pylori; format: cell-based; settings: Helicobacter pylori, 26695, 27 h, read-out: MIC H. pylori
C. jejuni strain H840 = test: MIC determination, liquid microdilution, C. jejuni; format: cell-based; settings: Campylobacter jejuni, H840, 27 h, read-out: MIC C. jejuni

Row | MIC (H. pylori strain 26695) | MIC (C. jejuni strain H840) | Compound
1 | 0.9 µM (≈ 0.241 µg/mL) | 11.2 µM (≈ 2.99 µg/mL) | O=C(Nc1ncc([N+](=O)[O-])s1)c1cccc(F)c1 [Analogue 7, 3-Fluoro-N-(5-nitrothiazol-2-yl)benzamide]
2 | 0.7 µM (≈ 0.256 µg/mL) | 5.5 µM (≈ 2.01 µg/mL) | O=C(Nc1ncc([N+](=O)[O-])s1)c1ccc(-c2cccc(Cl)c2)s1 [Analogue 81, 5-(3-Chlorophenyl)-N-(5-nitrothiazol-2-yl)thiophene-2-carboxamide]
3 | 1.5 µM (≈ 0.5 µg/mL) | 24 µM (≈ 8 µg/mL) | O=C(Nc1ncc([N+](=O)[O-])s1)c1ccc(-c2cccc(F)c2)o1 [Analogue 67, 5-(3-Fluorophenyl)-N-(5-nitrothiazol-2-yl)furan-2-carboxamide]
4 | 1.1 µM (≈ 0.387 µg/mL) | 17.1 µM (≈ 6.01 µg/mL) | O=C(Nc1ncc([N+](=O)[O-])s1)c1cc(C(F)(F)F)ccc1Cl [Analogue 39, 2-Chloro-N-(5-nitrothiazol-2-yl)-5-(trifluoromethyl)benzamide]
5 | 9.1 µM (≈ 2.5 µg/mL) | 43.8 µM (≈ 12 µg/mL) | N#Cc1ccc(C(=O)Nc2ncc([N+](=O)[O-])s2)cc1 [Analogue 21, 4-Cyano-N-(5-nitrothiazol-2-yl)benzamide]
6 | 1.1 µM (≈ 0.385 µg/mL) | 22.9 µM (≈ 8.01 µg/mL) | O=C(Nc1ncc([N+](=O)[O-])s1)c1ccc(-c2cccc(Cl)c2)o1 [Analogue 66, 5-(3-Chlorophenyl)-N-(5-nitrothiazol-2-yl)furan-2-carboxamide]
7 | 1.6 µM (≈ 0.488 µg/mL) | 13.1 µM (≈ 4 µg/mL) | O=C(Nc1ncc([N+](=O)[O-])s1)c1ccc(-c2ccoc2)o1 [Analogue 70, N-(5-Nitrothiazol-2-yl)-2,3′-bifuran-5-carboxamide]
8 | 0.8 µM (≈ 0.243 µg/mL) | 9.9 µM (≈ 3 µg/mL) | O=C(Nc1ncc([N+](=O)[O-])s1)c1cc(F)c(F)cc1F [Analogue 14, 2,4,5-Trifluoro-N-(5-nitrothiazol-2-yl)benzamide]
9 | 0.7 µM (≈ 0.2 µg/mL) | 14 µM (≈ 3.99 µg/mL) | O=C(Nc1ncc([N+](=O)[O-])s1)c1c(F)cccc1F [Analogue 11, 2,6-Difluoro-N-(5-nitrothiazol-2-yl)benzamide]
10 | 0.4 µM (≈ 0.114 µg/mL) | 7 µM (≈ 2 µg/mL) | O=C(Nc1ncc([N+](=O)[O-])s1)c1ccc(F)cc1F [Analogue 9, 2,4-Difluoro-N-(5-nitrothiazol-2-yl)benzamide]
11 | 0.3 µM (≈ 0.0874 µg/mL) | 1.3 µM (≈ 0.379 µg/mL) | O=C(CCCc1ccccc1)Nc1ncc([N+](=O)[O-])s1 [Analogue 45, N-(5-Nitrothiazol-2-yl)-4-phenylbutanamide]
12 | 6.2 µM (≈ 1.99 µg/mL) | 99.6 µM (≈ 32 µg/mL) | O=C(Nc1ncc([N+](=O)[O-])s1)c1ccc(-c2ccsc2)o1 [Analogue 71, N-(5-Nitrothiazol-2-yl)-5-(thiophen-3-yl)furan-2-carboxamide]
13 | 7.4 µM (≈ 2.51 µg/mL) |  | O=C(Nc1ncc([N+](=O)[O-])s1)c1c(F)c(F)c(F)c(F)c1F [Analogue 16, 2,3,4,5,6-Pentafluoro-N-(5-nitrothiazol-2-yl)benzamide]
14 | 1.8 µM (≈ 0.503 µg/mL) | 17.9 µM (≈ 5 µg/mL) | COc1ccccc1C(=O)Nc1ncc([N+](=O)[O-])s1 [Analogue 28, 2-Methoxy-N-(5-nitrothiazol-2-yl)benzamide]
15 | 0.5 µM (≈ 0.172 µg/mL) | 93.2 µM (≈ 32 µg/mL) | O=C(/C=C/c1ccc(C(F)(F)F)cc1)Nc1ncc([N+](=O)[O-])s1 [Analogue 55, (E)-N-(5-Nitrothiazol-2-yl)-3-(4-(trifluoromethyl)phenyl)acrylamide]
16 | 1.5 µM (≈ 0.486 µg/mL) | 2.3 µM (≈ 0.746 µg/mL) | O=C(Nc1ncc([N+](=O)[O-])s1)c1cc(Cl)sc1Cl [Analogue 75, 2,5-Dichloro-N-(5-nitrothiazol-2-yl)thiophene-3-carboxamide]
17 | 5.2 µM (≈ 1.51 µg/mL) | 20.7 µM (≈ 6 µg/mL) | O=C(Nc1ncc([N+](=O)[O-])s1)c1sccc1Cl [Analogue 78, 3-Chloro-N-(5-nitrothiazol-2-yl)thiophene-2-carboxamide]
18 | 1.2 µM (≈ 0.385 µg/mL) | 4.7 µM (≈ 1.51 µg/mL) | O=C(Nc1ncc([N+](=O)[O-])s1)c1cc(F)c(F)c(F)c1F [Analogue 15, 2,3,4,5-Tetrafluoro-N-(5-nitrothiazol-2-yl)benzamide]
19 | 0.7 µM (≈ 0.184 µg/mL) | 11.4 µM (≈ 3 µg/mL) | O=C(Cc1ccccc1)Nc1ncc([N+](=O)[O-])s1 [Analogue 43, N-(5-Nitrothiazol-2-yl)-2-phenylacetamide]
20 | 1.2 µM (≈ 0.364 µg/mL) | 4.9 µM (≈ 1.49 µg/mL) | O=C(Nc1ncc([N+](=O)[O-])s1)c1cc(F)c(F)c(F)c1 [Analogue 13, 3,4,5-Trifluoro-N-(5-nitrothiazol-2-yl)benzamide]
21 | 0.3 µM (≈ 0.0826 µg/mL) | 2.7 µM (≈ 0.743 µg/mL) | O=C(C=Cc1ccccc1)Nc1ncc([N+](=O)[O-])s1 [Analogue 54, N-(5-Nitrothiazol-2-yl)cinnamamide]
22 | 0.6 µM (≈ 0.174 µg/mL) | 111 µM (≈ 32 µg/mL) | O=C(Nc1ncc([N+](=O)[O-])s1)c1cc2ccccc2o1 [Analogue 72, N-(5-Nitrothiazol-2-yl)benzofuran-2-carboxamide]
23 | 1.4 µM (≈ 0.38 µg/mL) | 5.5 µM (≈ 1.49 µg/mL) | CCCCCCCC(=O)Nc1ncc([N+](=O)[O-])s1 [Analogue 51, N-(5-Nitrothiazol-2-yl)octanamide]
24 | 13.8 µM (≈ 3.99 µg/mL) | 2.6 µM (≈ 0.752 µg/mL) | O=C(Nc1ncc([N+](=O)[O-])s1)[C@@H]1C[C@H]1c1ccccc1 [Analogue 46, (1R,2R)-N-(5-Nitrothiazol-2-yl)-2-phenylcyclopropanecarboxamide]
25 | 4.1 µM (≈ 1.12 µg/mL) | 36.5 µM (≈ 10 µg/mL) | N#Cc1cccc(C(=O)Nc2ncc([N+](=O)[O-])s2)c1 [Analogue 20, 3-Cyano-N-(5-nitrothiazol-2-yl)benzamide]
26 | 1.6 µM (≈ 0.508 µg/mL) | 18.9 µM (≈ 6 µg/mL) | O=C(Nc1ncc([N+](=O)[O-])s1)c1ccccc1C(F)(F)F [Analogue 22, N-(5-Nitrothiazol-2-yl)-2-(trifluoromethyl)benzamide]
27 | 1.7 µM (≈ 0.512 µg/mL) | 26.5 µM (≈ 7.99 µg/mL) | CC1=C(C(=O)Nc2ncc([N+](=O)[O-])s2)Cc2ccccc21 [Analogue 47, 3-Methyl-N-(5-nitrothiazol-2-yl)indene-2-carboxamide]
28 | 4.9 µM (≈ 1.49 µg/mL) | 9.9 µM (≈ 3 µg/mL) | O=C(Nc1ncc([N+](=O)[O-])s1)c1c(F)cc(F)cc1F [Analogue 12, 2,4,6-Trifluoro-N-(5-nitrothiazol-2-yl)benzamide]
29 | 0.9 µM (≈ 0.313 µg/mL) |  | COc1cc(C(F)(F)F)ccc1C(=O)Nc1ncc([N+](=O)[O-])s1 [Analogue 32, 2-Methoxy-N-(5-nitrothiazol-2-yl)-4-(trifluoromethyl)benzamide]

Row | Compound | MIC (H. pylori strain 26695) | MIC (C. jejuni strain H840)
30 | COc1cc([N+](=O)[O-])ccc1C(=O)Nc1ncc([N+](=O)[O-])s1 [Analogue 33, 2-Methoxy-4-nitro-N-(5-nitrothiazol-2-yl)benzamide] | 0.6 µM (≈ 0.195 µg/mL) | 9.3 µM (≈ 3.02 µg/mL)
31 | O=C(Nc1ncc([N+](=O)[O-])s1)c1ccc(C(F)(F)F)cc1[N+](=O)[O-] [Analogue 36, 2-Nitro-N-(5-nitrothiazol-2-yl)-4-(trifluoromethyl)benzamide] | 8.3 µM (≈ 3.01 µg/mL) | 88.3 µM (≈ 32 µg/mL)
32 | O=C(Nc1ncc([N+](=O)[O-])s1)c1ccc(-c2cccc([N+](=O)[O-])c2)o1 [Analogue 69, 5-(3-Nitrophenyl)-N-(5-nitrothiazol-2-yl)furan-2-carboxamide] | 6.9 µM (≈ 2.49 µg/mL) | 16.7 µM (≈ 6.02 µg/mL)
33 | O=C(Nc1ncc([N+](=O)[O-])s1)c1cccc([N+](=O)[O-])c1O [Analogue 34, 2-Hydroxy-3-nitro-N-(5-nitrothiazol-2-yl)benzamide] | 19.3 µM (≈ 5.99 µg/mL) | 103 µM (≈ 32 µg/mL)
34 | O=C(Nc1ncc([N+](=O)[O-])s1)c1ccc(F)c([N+](=O)[O-])c1 [Analogue 37, 4-Fluoro-3-nitro-N-(5-nitrothiazol-2-yl)benzamide] | 1.6 µM (≈ 0.5 µg/mL) | 51.2 µM (≈ 16 µg/mL)
